Where “and” joins values, the source holds several entries; their conditions need not be identical. Equal entries are not always repeated.
Tested on: rat uterine decidualization
Test: Rat decidualization assay
Assay type: in vivo
Conditions: decidual response; for Estimated average EC50 (mg/kg s.c.): average over dose-response curves; for Estimated EC50 (mg/kg s.c.), individual studies: ovariectomized rats, uterine wet weight
Procedure: 2. Rat Decidualization Assay
b. Animals (RACUC protocol #5002)
The animals are treated once daily for seven days.
Uteri are removed and trimmed of fat.
Body weight: Mean total animal body weight (default-kg)
Decidual response: [(D−C)/C]×100%

Compound	Estimated average EC50 (mg/kg s.c.)	Estimated EC50 (mg/kg s.c.), individual studies
C#C[C@]1(O)CC[C@H]2[C@@H]3CCC4=CC(=O)CC[C@@H]4[C@H]3C(=C)C[C@@]21CC [3-Ketodesogestrel]	0.10	0.10 mg/kg s.c. and 0.06 mg/kg s.c. and 0.11 mg/kg s.c.
C#C[C@]1(O)CC[C@H]2[C@@H]3CCC4=CC(=O)CC[C@@H]4[C@H]3CC[C@@]21CC [Levonorgestrel]	0.10	0.08 mg/kg s.c. and 0.12 mg/kg s.c. and 0.09 mg/kg s.c. (2×)
CC(=O)O[C@]1(C(C)=O)CC[C@H]2[C@@H]3C[C@H](C)C4=CC(=O)CC[C@]4(C)[C@H]3CC[C@@]21C [MPA, medroxyprogesterone acetate]	–	0.42 mg/kg s.c. and 0.39 mg/kg s.c. (2×)
CC(=O)[C@H]1CC[C@H]2[C@@H]3CCC4=CC(=O)CC[C@]4(C)[C@H]3CC[C@]12C [Progesterone]	5.62	5.50 mg/kg s.c.
